Results published in patent publication US20060035873A1, “Methods for inducing apolipoprotein e secretion” (priority 2000, published 2006).
Where two headings read alike, the source gives them in different places.

Key:
LXRα = biological target: T1, LXRα (Homo sapiens, UniProt Q13133); conditions: see Janowsky et al. PNAS 1999; cited from earlier work
T1 sequence (Q13133 1-447): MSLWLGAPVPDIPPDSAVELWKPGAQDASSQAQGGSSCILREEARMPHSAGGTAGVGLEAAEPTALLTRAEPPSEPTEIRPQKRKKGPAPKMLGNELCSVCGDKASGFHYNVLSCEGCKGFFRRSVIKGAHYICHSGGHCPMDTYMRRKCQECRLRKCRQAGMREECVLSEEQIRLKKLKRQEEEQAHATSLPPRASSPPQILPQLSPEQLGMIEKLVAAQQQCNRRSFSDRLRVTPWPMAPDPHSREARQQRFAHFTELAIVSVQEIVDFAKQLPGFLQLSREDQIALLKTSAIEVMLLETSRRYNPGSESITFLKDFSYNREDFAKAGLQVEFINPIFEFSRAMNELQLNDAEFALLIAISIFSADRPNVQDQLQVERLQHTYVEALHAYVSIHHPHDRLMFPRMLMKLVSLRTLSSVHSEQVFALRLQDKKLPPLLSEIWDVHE

[1] = system: ApoE secretion by THP-1 cells; assay: Secretion of ApoE by THP-1 cells, ApoE determined by ELISA; type: cell-based, human; conditions: for Change in Apo E production: 72 hours incubation
Procedure: The activities of the compounds can be determined an in vitro assay which comprises testing the effects of FXR and LXRα activators on the secretion of ApoE in the THP-1 cell line.
The THP1 cell line was derived from the peripheral blood of a child with acute monocytic leukemia. […] Fresh medium was added to maintain cell density between 2 and 9×10^5 cells/ml. Once a week, new cultures were initiated by inoculating 10 ml of medium with 2×10^6 cells in a 75 cm^2 plate. The plates were kept at 37° C. in a 5% CO2 atmosphere. For screening, cells were seeded in 24-well plates at the density of 2×10^5 cells per well. Phorbol-12-myristat-13-acetate (PMA) was added at 0 and 2.5 nM to initiate THP1 differentiation into adherent macrophage-like cells. Vehicles, reference compounds and test compounds were added simultaneously at concentrations varying from 1 to 50 μM and incubated for 72 hours. The culture medium was then recovered, centrifuged at 300 g for 5 min to remove any unattached cell and stored at −20° C. before analysis.
96 well-microtiter plates were coated by incubating with a 5% gelatine solution from porcine skin, in 50 mM carbonate-bicarbonate buffer, pH9.6 at the concentration of 200 μl/well, for 2 hours at 37° C. The coating solution was carefully removed and the test compound was added (100 μl/well) at the appropriate dilution. Dilutions of a human ApoE standard (ICN BiomedicalsInc, USA) were simultaneously assayed. Test compounds and antibodies were diluted in the following buffer solution: PBS, 1% BSA, 0.1% Tween 20, pH 7.4. Test compounds were incubated for 1 hour at 37° C., and the wells were washed 3 times with 200 μl of buffer solution. One hundred microliters per well of the primary antibody (goat anti-human ApoE IgG) diluted 10000 fold was incubated for 1 hour at 37° C. under continuous shaking. After the third wash, 100 μl/well of the secondary antibody (anti-goat-IgG peroxidase conjugate) diluted 5000 fold was incubated for 1 hour at 37° C. with continuous shaking. Wells were washed 5 times and 100 μl/well of substrate (ortho-phenylenediamine dihydrochloride) was incubated for the appropriate time at room temperature in the dark with continuous shaking. The reaction was stopped by adding 50 μl/well of 3M sulfuric acid and incubating for 1 min at room temperature.

FXR = conditions: cited from earlier work

## CC(C)CC[C@@H](O)[C@@H](C)[C@H]1CC[C@H]2[C@@H]3CC=C4C[C@@H](O)CC[C@]4(C)[C@H]3CC[C@]12C [22(R)-hydroxycholesterol, 5-cholestene-3β,22[R]-diol]
LXRα
  Interaction with Nuclear receptor: LXRα activator ^3)
[1]; submicromolar concentrations
  ApoE secretion at submicromolar concentrations: significant increases in ApoE secretion

## CC(C)CC[C@H](O)[C@@H](C)[C@H]1CC[C@H]2[C@@H]3CC=C4C[C@@H](O)CC[C@]4(C)[C@H]3CC[C@]12C [22(S)-hydroxycholesterol, 5-cholestene-3β,22[S]-diol]
LXRα
  Interaction with Nuclear receptor: Less potent activator

## C[C@H](CCC(=O)O)[C@H]1CC[C@H]2[C@@H]3[C@H](O)C[C@@H]4C[C@H](O)CC[C@]4(C)[C@H]3CC[C@]12C [Chenodeoxycholic acid, 3α,7α-dihydroxy-5β-cholanic acid]
[1]; compound 50 μM
  Change in Apo E production: +138%
[1]; compound 50 μM, listed as chenodeoxycholic acid
  Change in Apo E production: 138%

## C[C@H](CCC(=O)O)[C@H]1CC[C@H]2[C@@H]3[C@H](O)C[C@@H]4C[C@H](O)CC[C@]4(C)[C@H]3C[C@H](O)[C@]12C [Cholic acid, 3α,7α,12α-trihydroxy-5β-cholan-24-oic acid]
FXR; see Makishima et al., Parks et al., Wang et al. 1999
  Interaction with Nuclear receptor: Does not activate
[1]; compound 50 μM
  Change in Apo E production: +6%
[1]; compound 50 μM, listed as cholic acid
  Change in Apo E production: did not change ApoE secretion

## CC(C)=CCC/C(C)=C/CC/C(C)=C/CC/C(C)=C/CO [Geranylgeraniol, All trans-3,7,11,15-tetramethyl-2,6,10,14-hexadecatetraen-1-ol]
FXR; see Forman et al. Cell 1995
  Interaction with Nuclear receptor: Does not activate
[1]; compound 20 μM
  Change in Apo E production: +36%
[1]; compound 20 μM, listed as geranylgeraniol
  Change in Apo E production: 36%
